Measurements taken from ChEMBL document CHEMBL3525916, “Investigation of figopitant and its metabolites in rat tissue by combining whole-body autoradiography with liquid extraction surface analysis mass spectrometry” (Drug Metab Dispos, 2012).

Test system: Rattus norvegicus
Assay: Retention time in albino Wistar Hannover rat treated with 5 mg/kg, iv of [14C]figopitant
Type: ADME, organism-based
Design: dose 5 mg/kg, route intravenous
Conditions: in vivo

Retention_time [min]	Structure (SMILES)
24.2	CN(CC(O)c1cc(C(F)(F)F)cc(C(F)(F)F)c1)C(=O)[C@H](c1ccccc1)N1CCN(CC2CC2)CC1 (stereo partly drawn)
14.5	CN(CCc1cc(C(F)(F)F)cc(C(F)(F)F)c1)C(=O)[C@H](c1ccccc1)N1CCNCC1
11.9	CN(CCc1cc(C(F)(F)F)cc(C(F)(F)F)c1)C(=O)[C@@H](NCCN)c1ccccc1
